Legend:
melanoma A375 tumors = melanoma A375 tumors implanted into the left ventricle of the heart; cited from earlier work
[1] = Serum levels of compound Ia on day 14 in healthy subjects, BID vs TID regimen (FIG. 2); format: in vivo, human; settings: 400 mg TID; for serum/plasma level before the morning dose (time zero), 8 hours after the previous dose: healthy subjects, compared with 8 hours after the morning dose
Procedure: Healthy subjects were put on one of two regimens of 400 mg BID or 400 mg. TID of a compound of Formula Ia. Blood samples were taken on day 14 immediately prior to the morning dose (time zero) and at 12 hours post-dose (for the BID regimen) or 8 hours post-dose (for the TID regimen).

HCV = assay: Viral load in HCV patients on regimens of compound of Formula Ia (reverse transcriptase PCR, FIG. 1); format: in vivo, human; settings: Patients with HCV, 200 mg BID, 400 mg BID, 400 mg TID
Excerpt: FIG. 1 is a graph of mean viral load measured over time with administration of various doses and regimens of compound of Formula Ia; and
Studies of viral activity in HCV infected patients indicate that viral activity and resulting viral load are influenced by the circadian rhythm of the patient. […] Thus, in one aspect of the invention, the one or more discrete dosages are adjusted in amount to provide a highest dose or doses at a time or times corresponding to the time interval when hepatitis-C virus replication is highest.
Patients with HCV were put on various treatment regimens including 200 mg. BID, 400 mg. BID, and 400 mg. TID of a compound of Formula Ia, to determine efficacy of the regimens in reducing viral load. Blood samples were taken at predose and at 0.25, 0.5, 0.75, 1, 1.5, 2, 3, 4, 5, 6, 8, 10, 12, 18, 24, 36, 48, 72, 144 hr post dose using reverse transcriptase PCR methods.

Row | plasma level 8 hours after the morning dose ([1]; compared with level before the morning dose) | serum/plasma level before the morning dose (time zero), 8 hours after the previous dose [1] | serum/plasma level before the morning dose (time zero), 8 hours after the previous dose ([1]; listed as formula la) | Structure (SMILES) | distant bone metastasis to the femur and tibia (melanoma A375 tumors) | pattern of viral load decline over time (HCV) | pattern of viral load decline over time (HCV; listed as Formula la) | viral load as measured in serum (HCV; predose to 144 hr post dose)
1 |  |  |  | CN(C)C(=O)[C@H](Cc1ccccc1)NC(=O)[C@H]1O[C@@H]1C(=O)NCCc1ccccn1 [CLIK-148] | reduced distant bone metastasis |  |  | 
2 | much lower | significantly higher at time zero | highest in the morning | CC(C)(C)NC(=O)N[C@H](C(=O)N1C[C@H]2[C@@H]([C@H]1C(=O)NC(CC1CCC1)C(=O)C(N)=O)C2(C)C)C(C)(C)C (stereo partly drawn) [Formula Ia, (1R,5S)-N-[3-Amino-1-(Cyclobutylmethyl)-2,3-Dioxopropyl]-3-[2(S)-[[[(1,1-Dimethylethyl)Amino]Carbonyl]Amino]-3,3-Dimethyl-1-Oxobutyl]-6,6-Dimethyl-3-Azabicyclo[3.1.0]Hexan-2(S)-Carboxamide] |  | exhibited cyclical fluctuations corresponding to the patients' sleep/wake cycles | the decline in viral load is cyclical | declined with all regimens

Source: US20060287248A1, “Asymmetric dosing methods” (Schering Corporation, priority 2005, published 2006)
